Assay results reported in paper PMC5882848, “Structural basis of interaction between dimeric cyclophilin 1 and Myb1 transcription factor in Trichomonas vaginalis” (Scientific Reports, 2018).
“Also recorded” adds a separate entry of the source.

What was measured:
[1] = system: cyclophilins; conditions: binding to the active site; cited from earlier work
Source text: Catalytically active cyclophilins with a single cyclophilin domain reported till now are monomeric in nature.

[2] = target: Cyclophilin 1 (TvCyP1) of Trichomonas vaginalis (Trichomonas vaginalis); test: SEC-MALS; 300 μg TvCyP1 (3 mg/mL) on ENrich SEC 70 column; 20 mM monosodium phosphate, 50 mM NaCl, 0.5 mM NaN3, pH 6.0, 25 °C
[3] = target: FITC-labeled Myb1^104–111 peptide (Trichomonas vaginalis); test: fluorescence polarisation
[4] = target: Cyclophilin 1 (TvCyP1) of Trichomonas vaginalis (Trichomonas vaginalis); test: AUC; sedimentation velocity, 29 μM TvCyP1 (legend: 30 μM), 20 °C, 50,000 rpm; 20 mM monosodium phosphate, 50 mM NaCl, 0.5 mM NaN3, pH 6.0; Sedfit
[5] = cited from earlier work
Source text: Nuclear translocation of Myb1 is an important step regulating the expression of disease causing ap65–1 gene. […] Moreover, CsA is not specific to any of the isof ...

[6] = system: isoforms of cyclophilins; design: method as in PMID 20676357; conditions: cited from earlier work
[7] = system: TvCyP1; test: NMR ROESY cis/trans isomerization (PPIase) of P107 in Myb1^104–111; format: biochemical, Trichomonas vaginalis
Experimental: ^1H-TOCSY, ^1H-COSY and ^1H-NOESY were performed at 300 K with a mixing time of 75 ms (TOCSY) and 300 ms (NOESY) on the Myb1^104–111 peptide to complete the assignment of proton resonances. The peptide was dissolved in 20 mM monosodium phosphate, 50 mM NaCl, 0.5 mM NaN3 (pH 6.0) to obtain a concentration of 2 mM. All ROESY experiments were performed at 300 K with 300 ms mixing time. […]

[8] = system: parasite; conditions: cited from earlier work
Source text: In most cases, the biological substrates of these cyclophilins are unknown and extensive structural studies on cyclophilin- substrate interactions have not been reported.

Row | Compound | inhibition of PPIase activity of cyclophilins [1] | stoichiometry N [2] | Kd [3] | stoichiometry N [4] | immunosuppressive activity [5] | isoform specificity [6] | inhibition of TvCyP1 isomerase activity ([7]; ROESY, 300 ms mixing time, 300 K, pH 6.0, CsA 22 μM (1.0 molar equivalent), 4.4 mM Myb1^104–111, 22 μM TvCyP1) | inhibition of Myb1^104–111 binding to TvCyP1 active site ([7]; from ROESY experiments, CsA) | anti-parasitic activity [8]
1 | CC[C@H]1C[C@H](C)[C@@]2(NC1=O)O[C@@H](C[C@H](O)[C@@H](C)CC/C=C/C=C(\C)[C@@H]1C/C=C/C=C/[C@H](O)[C@H](C)[C@@H](O)[C@@H](CCC(C)=O)C(=O)N[C@@H](C(C)C)C(=O)N[C@@H](Cc3cccc(O)c3)C(=O)N3CCC[C@H](N3)C(=O)O1)[C@H](C)[C@H](O)[C@@H]2C [sanglifehrin A (SfA), sanglifehrin A] | PPIase activity of cyclophilins can be inhibited | – | – | – | – | – | – | – | –
2 | Cyclophilin 1 (TvCyP1) of Trichomonas vaginalis (enzyme) | – | 2 | 16.8 µM | 2 | – | – | – | – | –
3 | cyclosporin A [CsA] | PPIase activity of cyclophilins can be inhibited | – | – | – | deleterious effect of its immunosuppressive activity | not specific to any of the isoforms of cyclophilins | hindered catalysis; also recorded: loss of the exchange cross-peaks between cis and trans resonances | can inhibit Myb1^104–111 binding to the active site | have been found with anti-parasitic activity
